Consider 14 molecules from patent US7510847B2, “Kidney-specific urate transporter and gene thereof” (Human Cell Systems, Inc., priority 2001, dated 2009).

Data set [1] deals with T1, URAT1 (Homo sapiens, UniProt Q96S37).
T1 sequence (Q96S37 1-553): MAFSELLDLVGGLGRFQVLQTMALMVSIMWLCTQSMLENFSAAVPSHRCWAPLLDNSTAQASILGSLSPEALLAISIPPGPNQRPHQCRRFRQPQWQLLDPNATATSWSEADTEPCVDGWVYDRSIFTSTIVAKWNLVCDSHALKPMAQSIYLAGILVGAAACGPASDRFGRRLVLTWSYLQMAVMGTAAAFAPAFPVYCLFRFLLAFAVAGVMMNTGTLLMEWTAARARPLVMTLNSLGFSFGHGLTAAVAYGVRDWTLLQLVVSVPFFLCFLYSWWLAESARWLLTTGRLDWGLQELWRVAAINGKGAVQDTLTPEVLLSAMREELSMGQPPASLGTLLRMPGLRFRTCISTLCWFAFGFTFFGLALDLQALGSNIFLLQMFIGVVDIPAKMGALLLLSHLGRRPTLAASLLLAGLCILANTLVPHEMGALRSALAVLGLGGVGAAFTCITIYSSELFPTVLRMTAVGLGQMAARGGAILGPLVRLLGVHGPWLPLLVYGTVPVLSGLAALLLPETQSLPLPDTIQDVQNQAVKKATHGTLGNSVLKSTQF
The data set can be described thus: inhibition of [14C] uric acid uptake by oocytes injected with URAT1 cRNA.

Data set [2] addresses T1, URAT1. Nature of the data set: uric acid uptake by URAT1 oocytes after preincubation with or pre-injection of organic acids (exchange substrate study). Set-up: expressed in transfected cells; host or cells: Xenopus laevis oocytes ("platanna") injected with URAT1 cRNA. To be noted: for uptake of radiolabeled uric acid after precedent injection of organic acid into oocytes: 100 nl of 100 mM injected, compared to water injected, FIG. 7; for uptake of uric acid after preincubation of oocytes with organic acid: preincubation 1 mM, oocytes injected with URAT1 cRNA, FIG. 6. The format is cell-based. The protocol:
Therefore, 100 nl of 100 mM non-radiolabeled L-lactic acid was precedently injected in the oocytes, and then the uptake of the radiolabeled uric acid was observed (FIG. 7).

Data set [3] has as its target T1, URAT1. The data set can be described thus: uptake of radiolabeled substrates by oocytes injected with URAT1 cRNA. The format is cell-based. Set-up: expressed in transfected cells; host or cells: Xenopus laevis oocytes ("platanna") injected with URAT1 cRNA. The note with it: oocytes of platanna injected with URAT1 cRNA. How it is done: Michaelis-Menten dynamic experiment in urate transport by URAT1 was carried out. Concentration dependency of uric acid in the transport by URAT1 was studied by examining change of uptake amounts of uric acid at various concentrations by URAT1. The uptake experiment of the radiolabeled uric acid was carried out using oocytes injected with URAT1 cRNA according to the method described above.

Substrate in data set [4]: O=c1[nH]c(=O)c2[nH]c(=O)[nH]c2[nH]1
The description is as above. The format is cell-based, human. To be noted: other: oocytes injected with URAT1 cRNA, FIG. 3.

The mark [5] stands for this setting: 50 μM [14C] uric acid, pH 7.4, unlabeled compound at concentrations shown in FIG. 8.

In the case of `C[C@@H](O)C(=O)O` [D-lactic acid], the “inhibition of transport/uptake of [14C] uric acid by URAT1” value against URAT1 [1] (setting [5]) is on record as “significantly inhibited”.

In the case of `C[C@H](O)C(=O)O` [L-lactic acid], at URAT1 [1] (setting [5]), the “inhibition of transport/uptake of [14C] uric acid by URAT1” value was “significantly inhibited”. Besides, the “uptake of radiolabeled uric acid after precedent injection of organic acid into oocytes” value at URAT1 [2] is given as “significantly high uptake”.

`CCCCc1nc(Cl)c(CO)n1Cc1ccc(-c2ccccc2-c2nn[nH]n2)cc1` [Losartan]: on URAT1 [1], the IC50 – broadly, the concentration at which inhibition is half-maximal – is approximately 20 µM. Further, the “inhibition of transport/uptake of [14C] uric acid by URAT1” value on URAT1 [1] (setting [5]) is given as “significantly inhibited”.

With `Nc1ccc(C(=O)NCC(=O)O)cc1` [PAH, para-amino hippuric acid], the “inhibition of transport/uptake of [14C] uric acid by URAT1” value on URAT1 [1] (setting [5]) was “did not show any inhibitory action”. Moreover, the “uptake of 14C-labeled substrate by oocytes expressing URAT1” value (from here on “uptake of 14C-labeled substrate”) on URAT1 [3] is listed as “No uptake”. Moreover, at URAT1 [2], the “uptake of radiolabeled uric acid after precedent injection of organic acid into oocytes” value was “no change” and the “uptake of uric acid after preincubation of oocytes with organic acid” value (“uptake of uric acid” below) was “not facilitated”.

On to `CC[N+](CC)(CC)CC` [TEA, tetraethylammonium], for which, on URAT1 [1] (setting [5]), the “inhibition of transport/uptake of [14C] uric acid by URAT1” value is listed as “did not show any inhibitory action”. On URAT1 [3], the “uptake of 14C-labeled substrate” value is given as “No uptake”.

On to `CCc1oc2ccccc2c1C(=O)c1cc(Br)c(O)c(Br)c1` [benz-bromarone], for which the “inhibition of transport/uptake of [14C] uric acid by URAT1” value on URAT1 [1] (pH 7.4) was “significantly inhibited”.

`CC(O)C(=O)O` (stereo not shown) [lactic acid]: the “uptake of uric acid” value on URAT1 [2] was “not facilitated”.

For the molecule `O=C(O)c1cccnc1` [nicotinic acid, 3-pyridine carboxylic acid], the “inhibition of transport/uptake of [14C] uric acid by URAT1” value on URAT1 [1] (setting [5]) is listed as “significantly inhibited”. The “uptake of uric acid” value at URAT1 [2] is given as “significantly increased”.

As for `CCCN(CCC)S(=O)(=O)c1ccc(C(=O)O)cc1` [probenecid], the “inhibition of transport/uptake of [14C] uric acid by URAT1” value against URAT1 [1] (setting [5]) is reported as “significantly inhibited”.

Consider `O=C(O)c1cnccn1` [pyrazine carboxylic acid], for which the “inhibition of transport/uptake of [14C] uric acid by URAT1” value at URAT1 [1] (setting [5]) is “significantly inhibited”. For the same molecule, the “uptake of uric acid” value on URAT1 [2] is recorded as “significantly increased”.

Regarding `O=C1C(CC[S+]([O-])c2ccccc2)C(=O)N(c2ccccc2)N1c1ccccc1` (stereo not shown) [sulfinpyrazon], the “inhibition of transport/uptake of [14C] uric acid by URAT1” value against URAT1 [1] (setting [5]) is recorded as “significantly inhibited”.

With `O=c1[nH]c(=O)c2[nH]c(=O)[nH]c2[nH]1` [uric acid], the “uptake of 14C-labeled substrate” value on URAT1 [3] was “showed uptake”.

With Pyrazine dicarboxylic acid, the “inhibition of transport/uptake of [14C] uric acid by URAT1” value against URAT1 [1] (setting [5]) is “slightly weak inhibitory effect”.

B1: URAT1 (Homo sapiens) (protein)
chain: MAFSELLDLVGGLGRFQVLQTMALMVSIMWLCTQSMLENFSAAVPSHRCWAPLLDNSTAQASILGSLSPEALLAISIPPGPNQRPHQCRRFRQPQWQLLDPNATATSWSEADTEPCVDGWVYDRSIFTSTIVAKWNLVCDSHALKPMAQSIYLAGILVGAAACGPASDRFGRRLVLTWSYLQMAVMGTAAAFAPAFPVYCLFRFLLAFAVAGVMMNTGTLLMEWTAARARPLVMTLNSLGFSFGHGLTAAVAYGVRDWTLLQLVVSVPFFLCFLYSWWLAESARWLLTTGRLDWGLQELWRVAAINGKGAVQDTLTPEVLLSAMREELSMGQPPASLGTLLRMPGLRFRTCISTLCWFAFGFTFFGLALDLQALGSNIFLLQMFIGVVDIPAKMGALLLLSHLGRRPTLAASLLLAGLCILANTLVPHEMGALRSALAVLGLGGVGAAFTCITIYSSELFPTVLRMTAVGLGQMAARGGAILGPLVRLLGVHGPWLPLLVYGTVPVLSGLAALLLPETQSLPLPDTIQDVQNQAVKKATHGTLGNSVLKSTQF
notes: expressed in transfected cells; host or cells: Xenopus laevis oocytes ("platanna") injected with URAT1 cRNA
B1: the Km (in general, the substrate concentration at which the rate is half of its maximum) in data set [4] came out at 372 ± 25 µM.
